Several values for one entry are separate records, joined by “and”; a condition that tells them apart may be missing. Identical values can stand only once. Entries after “also recorded” stand apart in the source; their conditions may differ. Like-named read-outs stand apart in the source and are kept apart here. Non-standard residues stand in square brackets, D forms with d. Residues, ends and D or L forms follow the SMILES beside them.
What was measured:
[1] = tested on: CHO cells stably expressing human gpr-54; assay: Cell migration (wound healing) assay in CHO cells; format: cell-based, Chinese hamster
Protocol: (§1) Human Umbilical Vein Endothelial Cells (HUVECs) isolated from neonatal umbilical cord were used as they endogenously express gpr-54, which is though to be involved in cell migration in the placenta. Chinese hamster ovary (CHO) cells which stably express the human gpr-54 receptor were used as a model cell line for wound healing assays. […] Complete media was added along with 1 nM Kisspeptin-10 for HUVECs and 100 nM Kisspeptin-10 for CHO cells, the optimal concentrations to inhibit cell migration (wound healing) in each cell type, in the presence and absence of antagonist 233, 234, 273 and 276 for HUVECs and 234 for CHOs. […] Cells were photographed on the axiovert 2000 at 20× magnification in phase contrast (Hori et al., 2001. Metastin suppresses the motility and growth of CHO cells transfected with its receptor. Biochem Biophys Res Commun 286, 958-963; Stafford et al., 2002, Identification and characterization of mouse metastasis-suppressor KiSS1 and its G-protein-coupled receptor. Cancer Res 62, 5399-5404).

GnRH neurons = assay: GnRH neuron firing, targeted extracellular recordings in brain slices; format: cell-based, mouse; details: for response of GnRH neuron firing to 1 nM kisspeptin-10 after pretreatment with peptide: 1, 10, 100 nM peptide
Protocol: Firing of GnRH neurons were recorded in brain slices from transgenic female mice in which GFP is genetically targeted to GnRH neurons (42). Mice were housed on a 14 h light, 10 h dark cycle, with lights off at 1630 h, and were maintained on Harlan 2916 rodent chow (Harlan) and water ad libitum. All procedures were approved by the Animal Care and Use Committee of University of Virginia and were conducted within the guidelines of the National Research Council's Guide for the Care and Use of Laboratory Animals. Adult female GnRH-GFP mice were ovariectomized under isoflurane (Abbott Laboratories) anesthesia. Postoperative analgesia was provided by a long-acting local anesthetic (0.25% bupivicaine; 7.5 μl/site; Abbott Laboratories). At the time of surgery, mice received Silastic (Dow Corning) capsules containing 0.625 μg estradiol in sesame oil. […] No more than four cells from a single animal were recorded, all in different slices.
Brain slices were prepared using previously described method (44). Briefly, all solutions were bubbled with a 95% O2/5% CO2 mixture throughout the experiments and for at least 15 min before exposure to the tissue. The brain was rapidly removed and placed in ice-cold, high-sucrose saline solution containing 250 mM sucrose, 3.5 mM KCl, 26 mM NaHCO3, 10 mM glucose, 1.25 mM Na2HPO4, 1.2 mM MgSO4, and 2.5 mM MgCl2. Coronal 300-μm brain slices were cut with a Vibratome 3000 (Technical Products, International, Inc., St. Louis, Mo.). Slices were incubated for 30 min at 30-32 C in a solution of 50% high-sucrose saline and 50% normal saline (NS) containing 135 mM NaCl, 3.5 mM KCl, 10 mM glucose, 1.3 mM Na2HPO4, 1.2 mM MgSO4, and 2.5 mM CaCl2 and then were transferred to a solution of 100% NS at room temperature and kept at least 30 min and no more than 6 h before recording.
Targeted extracellular recordings (also known as loose-patch) were used to study effects of kisspeptin-10 and peptide 234 on GnRH neuron firing activity (45). […] Although these events are not action potentials per se, they accurately reflect changes in the action potential firing rate. For simplicity, we have used the phrases firing rate, firing pattern, and/or firing activity to refer to these events.
Individual brain slices were placed in a recording chamber continuously superfused with oxygenated NS solution and kept at 29-31 C. Cells were visualized with an Olympus BX50WI upright fluorescent microscope with infrared differential interference contrast (Opelco). GnRH neurons were identified by brief illumination at 470 nm to visualize the GFP signal. Patch borosilicate pipettes (World Precision Instruments), which ranged from 1.5-3 ΩM were filled with normal HEPES-buffered solution containing 150 mM NaCl, 10 mM HEPES, 10 mM glucose, 2.5 mM CaCl2, 1.3 mM MgCl2, and 3.5 mM KCl. Pipettes were placed in contact with the GnRH neurons using an MP-285 micromanipulator (Sutter Instruments). Seal resistances ranged from 8 MΩ and either remained stable or increased during recording up to as high as 50 MΩ. Current traces were obtained using an EPC-8 amplifier (HEKA) with the PulseControl XOP (Instrutech) running in Igor Pro (Wavemetrics) on the G4 Macintosh computer (Apple Computer) to acquire data. A voltage-clamp mode with a pipette holding potential of 0 mV, filtering at 10 kHz, digitized with an ITC-18 acquisition interface (Instrutech) was used for the recordings.
Different doses (1 nM, 10 nM, 100 nM) of peptide 234 were used to examine its antagonistic action on kisspeptin-10 activation of gpr-54. Positive control cells were recorded for a 10-min stable baseline, and then treated with kisspeptin-10 for 5 min, followed by a 15-min washout. Experimental cells were recorded for a 5-min stable baseline in NS, followed by 10 min in peptide 234 (1, 10 or 100 nM), then 5 min in kisspeptin-10 plus the same dose of antagonist, followed by a wash in NS. […]

GPR54 = GPR54 (Homo sapiens, UniProt Q969F8); assay: Whole cell receptor binding assay, competition with 125I-labelled kisspeptin-10; set-up: expressed in transfected cells; host or cells: CHO, stably transfected; details: competition with I125-labelled kisspeptin-10
Chain of GPR54 (Q969F8 whole entry): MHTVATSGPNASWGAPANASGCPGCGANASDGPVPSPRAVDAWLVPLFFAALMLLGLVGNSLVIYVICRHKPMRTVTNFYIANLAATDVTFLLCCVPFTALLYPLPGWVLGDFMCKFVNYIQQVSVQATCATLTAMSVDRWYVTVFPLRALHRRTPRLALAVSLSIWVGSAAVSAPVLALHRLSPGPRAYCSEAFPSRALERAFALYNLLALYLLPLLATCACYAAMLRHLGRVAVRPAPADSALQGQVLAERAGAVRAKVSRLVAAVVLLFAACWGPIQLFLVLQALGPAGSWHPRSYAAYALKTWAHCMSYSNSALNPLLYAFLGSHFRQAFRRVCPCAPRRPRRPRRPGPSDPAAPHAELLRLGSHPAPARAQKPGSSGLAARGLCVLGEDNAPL
Protocol: Whole Cell Receptor Binding Assay—Kisspeptin-10 and analogues were prepared at 1:1000 dilutions in HEPES modified Dulbecco's modified Eagle's medium (DMEM) supplemented with ^125I-labelled Kisspeptin to produce 100,000 counts per minute (cpm). Cell monolayers were placed on ice and exposed to 0.5 mls peptide (10 pM-1 uM); the cells were then incubated at 4° C. for 4 hr. After 4 hrs, cells were washed twice with ice cold Dulbecco's phosphate buffered saline (DPBS; with Calcium and Magnesium) and then 0.5 mls 0.1M Sodium Hydroxide (NaOH) were added to cells for 20 minutes, shaking to lyse cells. Lysates were transferred to plastic tubes and bound radioactivity counted on the gamma counter for 60 seconds.

[2] = tested on: HUVECs (Human Umbilical Vein Endothelial Cells); assay: Cell migration (wound healing) assay in HUVECs; format: cell-based
Protocol: as §1

| Kd (GPR54; read-out: binding affinity) | SMILES | inhibition of cell migration ([1]; 100 nM) | GnRH neuron firing activity (GnRH neurons; 1 nM agonist, listed as kisspeptin-10) | Kd (GPR54; binding affinity) | inhibition of migration in to the wound ([2]; 1 nM) | effect on inhibition of cell migration by 100 nM Kisspeptin ([1]; 22 hrs) | GnRH neuron firing activity, peptide alone (GnRH neurons; 1 nM, post) | GnRH neuron firing activity, peptide alone (GnRH neurons; 1 nM, pre) | GnRH neuron firing activity, peptide alone (GnRH neurons; 10 nM, post) | GnRH neuron firing activity, peptide alone (GnRH neurons; 10 nM, pre) | GnRH neuron firing activity, peptide alone (GnRH neurons; 100 nM, post) | GnRH neuron firing activity, peptide alone (GnRH neurons; 100 nM, pre) | effect of peptide alone on GnRH neuron firing activity (GnRH neurons; 1, 10, 100 nM) | response of GnRH neuron firing to 1 nM kisspeptin-10 after pretreatment with peptide (GnRH neurons) | response of GnRH neuron firing to 1 nM kisspeptin-10 after pretreatment with peptide (GnRH neurons; listed as peptide 234) | inhibition of migration by 1 nM Kisspeptin in the presence of peptide ([2]; 22 hrs) |
| --- | --- | --- | --- | --- | --- | --- | --- | --- | --- | --- | --- | --- | --- | --- | --- | --- |
| – | CC(C)C[C@H](NC(=O)CNC(=O)[C@H](Cc1ccccc1)NC(=O)[C@H](CO)NC(=O)[C@H](CC(N)=O)NC(=O)[C@H](Cc1c[nH]c2ccccc12)NC(=O)[C@H](CC(N)=O)NC(=O)[C@@H](N)Cc1ccc(O)cc1)C(=O)N[C@@H](CCCNC(=N)N)C(=O)N[C@@H](Cc1ccccc1)C(N)=O [Kiss, reference compound] | 50% | significantly increased; also recorded: markedly increased | 2 nM | 50% | – | – | – | – | – | – | – | – | – | – | – |
| 2 nM and 2.7 nM | CC(=O)N[C@H](C)C(=O)N[C@@H](CC(N)=O)C(=O)N[C@@H](Cc1c[nH]c2ccccc12)C(=O)N[C@@H](CC(N)=O)C(=O)NCC(=O)N[C@@H](Cc1ccccc1)C(=O)NCC(=O)N[C@H](Cc1c[nH]c2ccccc12)C(=O)N[C@@H](CCCNC(=N)N)C(=O)N[C@@H](Cc1ccccc1)C(N)=O [Peptide 234] (Ac-[dA]NWNGFG[dW]RF-NH2) | – | – | – | – | completely abolishes | 0.27±0.08 Hz | 0.18±0.12 Hz | 0.29±0.17 Hz | 0.34±0.15 Hz | 0.62±0.14 Hz | 0.45±0.12 Hz | no effect | block | significantly reduced; also recorded: blocked | 10% |
